The target of one experiment is Beta Lactamase (Pseudomonas aeruginosa, UniProt Q932Y6). The experiment is described as follows: BLA reporter interference, concentration series – BLA reporter cells, FRET fluorescence, artefact control for TLR9-MyD88 binding inhibitor project, dose response (AID 588341).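 Further: cell based assay in CHO-K1 cells stably expressing beta-lactamase.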 Type of experiment: cell-based.
A short description of experiment [1]: viability loss in THP-1 monocytes – THP-1 cells, cytotoxicity control for Vif-APOBEC3G degradation inhibitor project, dose response (AID 1117359). It counts as functional. To be noted: THP-1.
A further experiment deals with CHO. In words: CHO cell viability loss, potency – luminescence, cytotoxicity control for TLR9-MyD88 binding inhibitor project, dose response (AID 588339).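 Further: CHO cells stably coexpressing TLR9 and MyD88 fusions from primary screen; compound exposure lasted 48 hours before viability readout.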 Type of experiment: functional, cell-based, hamster. To be noted: Cricetulus griseus.
For experiment [2], the target named is T1, Voltage-gated N-type calcium channel alpha-1B subunit/Amyloid beta A4 precursor protein-binding family A member 1 (Homo sapiens, UniProt Q00975+Q02410). Type of experiment: protein assay.
T1 sequence (Q00975 whole entry): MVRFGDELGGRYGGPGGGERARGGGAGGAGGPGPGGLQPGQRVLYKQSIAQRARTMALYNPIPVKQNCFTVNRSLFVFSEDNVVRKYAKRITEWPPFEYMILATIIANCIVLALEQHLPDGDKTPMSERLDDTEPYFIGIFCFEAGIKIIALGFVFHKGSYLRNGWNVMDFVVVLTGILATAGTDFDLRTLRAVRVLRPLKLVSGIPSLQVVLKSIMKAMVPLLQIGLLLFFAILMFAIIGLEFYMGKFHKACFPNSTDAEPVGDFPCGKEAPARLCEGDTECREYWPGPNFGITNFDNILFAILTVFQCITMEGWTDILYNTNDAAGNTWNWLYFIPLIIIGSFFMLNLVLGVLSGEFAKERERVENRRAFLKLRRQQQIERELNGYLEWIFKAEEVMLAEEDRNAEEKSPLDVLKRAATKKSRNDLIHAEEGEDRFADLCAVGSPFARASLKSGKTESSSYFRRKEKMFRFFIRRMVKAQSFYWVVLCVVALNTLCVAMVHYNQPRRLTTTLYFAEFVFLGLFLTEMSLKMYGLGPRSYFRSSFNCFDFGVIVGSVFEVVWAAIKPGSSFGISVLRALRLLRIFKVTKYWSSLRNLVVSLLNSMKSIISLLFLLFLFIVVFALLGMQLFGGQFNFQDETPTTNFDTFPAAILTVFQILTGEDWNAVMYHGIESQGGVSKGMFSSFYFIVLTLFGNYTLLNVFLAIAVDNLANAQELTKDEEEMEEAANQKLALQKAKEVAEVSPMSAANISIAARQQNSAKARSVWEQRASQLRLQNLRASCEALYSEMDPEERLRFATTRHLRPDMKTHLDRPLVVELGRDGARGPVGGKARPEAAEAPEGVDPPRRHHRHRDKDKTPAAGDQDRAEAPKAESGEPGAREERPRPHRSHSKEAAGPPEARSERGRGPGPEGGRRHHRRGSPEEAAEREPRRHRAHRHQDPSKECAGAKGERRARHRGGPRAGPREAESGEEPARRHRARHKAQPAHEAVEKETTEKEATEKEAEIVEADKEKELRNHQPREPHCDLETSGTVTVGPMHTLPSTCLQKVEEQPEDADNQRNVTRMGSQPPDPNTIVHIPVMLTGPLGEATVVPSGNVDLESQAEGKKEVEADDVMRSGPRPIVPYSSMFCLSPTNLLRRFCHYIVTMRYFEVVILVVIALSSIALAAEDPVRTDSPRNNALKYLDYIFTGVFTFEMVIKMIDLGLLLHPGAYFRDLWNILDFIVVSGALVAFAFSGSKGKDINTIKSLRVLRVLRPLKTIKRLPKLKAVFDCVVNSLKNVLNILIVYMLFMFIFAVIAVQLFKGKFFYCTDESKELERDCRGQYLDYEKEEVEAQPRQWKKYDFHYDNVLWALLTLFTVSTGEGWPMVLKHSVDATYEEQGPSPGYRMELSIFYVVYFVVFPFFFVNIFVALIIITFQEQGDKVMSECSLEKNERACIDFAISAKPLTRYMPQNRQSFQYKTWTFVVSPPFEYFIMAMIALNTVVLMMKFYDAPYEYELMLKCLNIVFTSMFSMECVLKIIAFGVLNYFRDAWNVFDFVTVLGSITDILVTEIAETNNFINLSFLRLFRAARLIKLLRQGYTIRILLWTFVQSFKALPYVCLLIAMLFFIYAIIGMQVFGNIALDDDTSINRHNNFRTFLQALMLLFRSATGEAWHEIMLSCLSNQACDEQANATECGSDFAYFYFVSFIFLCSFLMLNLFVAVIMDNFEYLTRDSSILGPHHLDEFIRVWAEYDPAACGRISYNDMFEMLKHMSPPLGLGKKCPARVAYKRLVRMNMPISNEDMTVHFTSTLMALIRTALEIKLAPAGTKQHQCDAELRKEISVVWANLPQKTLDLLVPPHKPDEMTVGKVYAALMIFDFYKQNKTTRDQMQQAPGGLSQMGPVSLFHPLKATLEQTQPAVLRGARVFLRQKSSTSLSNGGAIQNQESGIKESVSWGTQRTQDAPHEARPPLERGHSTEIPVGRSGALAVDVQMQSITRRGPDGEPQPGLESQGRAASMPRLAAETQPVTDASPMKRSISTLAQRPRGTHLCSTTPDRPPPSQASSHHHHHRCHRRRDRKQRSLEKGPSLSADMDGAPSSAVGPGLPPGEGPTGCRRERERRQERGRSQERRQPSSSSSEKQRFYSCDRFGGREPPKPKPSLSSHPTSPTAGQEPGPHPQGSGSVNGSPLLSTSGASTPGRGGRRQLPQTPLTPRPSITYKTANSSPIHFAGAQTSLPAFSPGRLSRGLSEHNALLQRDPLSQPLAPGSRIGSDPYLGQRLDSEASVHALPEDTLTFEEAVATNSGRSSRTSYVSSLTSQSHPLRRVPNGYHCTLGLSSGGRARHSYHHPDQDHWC
T1 sequence (Q02410 whole entry): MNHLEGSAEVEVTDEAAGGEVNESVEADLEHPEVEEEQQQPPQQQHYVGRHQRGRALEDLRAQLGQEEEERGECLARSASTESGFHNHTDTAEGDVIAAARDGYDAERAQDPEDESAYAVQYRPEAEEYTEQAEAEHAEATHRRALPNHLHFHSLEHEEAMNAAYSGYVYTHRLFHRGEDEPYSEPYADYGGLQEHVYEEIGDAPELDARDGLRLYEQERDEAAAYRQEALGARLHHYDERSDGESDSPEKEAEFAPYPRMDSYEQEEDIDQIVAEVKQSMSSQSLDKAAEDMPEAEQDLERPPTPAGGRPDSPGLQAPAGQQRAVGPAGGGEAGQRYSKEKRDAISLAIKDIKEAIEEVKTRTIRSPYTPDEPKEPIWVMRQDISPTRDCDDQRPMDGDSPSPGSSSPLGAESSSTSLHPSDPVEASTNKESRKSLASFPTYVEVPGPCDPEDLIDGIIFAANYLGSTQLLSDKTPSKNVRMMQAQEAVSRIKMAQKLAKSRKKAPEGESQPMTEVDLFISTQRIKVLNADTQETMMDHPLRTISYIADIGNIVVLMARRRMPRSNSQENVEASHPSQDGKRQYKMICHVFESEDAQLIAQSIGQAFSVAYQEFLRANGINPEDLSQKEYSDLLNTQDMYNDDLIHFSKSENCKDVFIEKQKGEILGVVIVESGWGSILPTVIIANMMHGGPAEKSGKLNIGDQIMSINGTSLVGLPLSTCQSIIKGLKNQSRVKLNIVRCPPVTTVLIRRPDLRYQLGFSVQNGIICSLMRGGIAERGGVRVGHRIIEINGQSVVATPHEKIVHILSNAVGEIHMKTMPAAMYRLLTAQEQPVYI
The target of experiment [3] is Induced myeloid leukemia cell differentiation protein Mcl-1 (Homo sapiens, UniProt Q07820). Type of experiment: functional.
Experiment [4] addresses T1, Voltage-gated N-type calcium channel alpha-1B subunit/Amyloid beta A4 precursor protein-binding family A member 1. It counts as protein assay. This is another data set of the same source.
The target of experiment [5] is T2, Short transient receptor potential channel 4 (Mus musculus, UniProt Q9QUQ5).
T2 sequence (Q9QUQ5 whole entry): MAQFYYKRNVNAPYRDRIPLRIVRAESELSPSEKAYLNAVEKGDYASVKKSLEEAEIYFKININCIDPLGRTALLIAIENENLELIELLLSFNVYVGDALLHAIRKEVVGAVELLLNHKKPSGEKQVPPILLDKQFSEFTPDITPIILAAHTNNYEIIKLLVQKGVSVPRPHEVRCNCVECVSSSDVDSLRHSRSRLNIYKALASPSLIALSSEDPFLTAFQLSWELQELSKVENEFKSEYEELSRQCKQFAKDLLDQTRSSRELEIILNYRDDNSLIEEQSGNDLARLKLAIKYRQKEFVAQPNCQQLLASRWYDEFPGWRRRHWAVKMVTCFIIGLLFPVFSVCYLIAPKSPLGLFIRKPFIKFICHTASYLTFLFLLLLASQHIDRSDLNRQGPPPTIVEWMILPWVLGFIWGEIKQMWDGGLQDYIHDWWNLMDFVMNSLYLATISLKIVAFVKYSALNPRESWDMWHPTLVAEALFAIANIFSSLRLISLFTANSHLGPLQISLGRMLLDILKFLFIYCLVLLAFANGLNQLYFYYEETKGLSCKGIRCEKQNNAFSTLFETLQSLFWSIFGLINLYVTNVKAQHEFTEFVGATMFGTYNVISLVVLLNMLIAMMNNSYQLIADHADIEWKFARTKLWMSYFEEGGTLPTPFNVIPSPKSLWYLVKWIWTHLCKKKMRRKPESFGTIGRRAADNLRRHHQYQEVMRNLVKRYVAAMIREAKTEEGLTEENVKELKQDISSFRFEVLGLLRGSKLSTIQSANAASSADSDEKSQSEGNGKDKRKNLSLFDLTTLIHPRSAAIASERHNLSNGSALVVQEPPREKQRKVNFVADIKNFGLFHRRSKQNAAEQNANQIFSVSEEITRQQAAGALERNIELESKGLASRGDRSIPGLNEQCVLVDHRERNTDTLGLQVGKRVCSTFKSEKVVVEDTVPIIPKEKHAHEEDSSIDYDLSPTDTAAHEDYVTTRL
The experiment is described as follows: SAR Analysis for the identification of selective inhibits of the transient receptor potential cation channel C4 (TRPC4): Automated Electrophysiology_2. [Related pubchem assays (depositor defined):AID2256]. It counts as functional.

Experiment [6] addresses Short transient receptor potential channel 6 (Mus musculus, UniProt Q61143). The experiment is described as follows: mouse TRPC6 channel blockers, concentration series – HEK293 cells, membrane potential dye, IC50, selectivity assay for selective TRPC4 inhibitor project, dose response (AID 492987). It counts as functional, cell-based.
The target of experiment [7] is T2, Short transient receptor potential channel 4. In words: potency of mouse TRPC4 calcium flux blockers – cell-based, HEK293 TRPC4/mu-opioid, DAMGO stimulus, Fluo-4, dose response (AID 492994). It counts as functional. Background: Calcium assays in cells follow changes in intracellular calcium, usually with a dye or a luminescent sensor.
A further experiment addresses T3, Hexokinase HKDC1 (Homo sapiens, UniProt Q2TB90).
T3 sequence (Q2TB90 whole entry): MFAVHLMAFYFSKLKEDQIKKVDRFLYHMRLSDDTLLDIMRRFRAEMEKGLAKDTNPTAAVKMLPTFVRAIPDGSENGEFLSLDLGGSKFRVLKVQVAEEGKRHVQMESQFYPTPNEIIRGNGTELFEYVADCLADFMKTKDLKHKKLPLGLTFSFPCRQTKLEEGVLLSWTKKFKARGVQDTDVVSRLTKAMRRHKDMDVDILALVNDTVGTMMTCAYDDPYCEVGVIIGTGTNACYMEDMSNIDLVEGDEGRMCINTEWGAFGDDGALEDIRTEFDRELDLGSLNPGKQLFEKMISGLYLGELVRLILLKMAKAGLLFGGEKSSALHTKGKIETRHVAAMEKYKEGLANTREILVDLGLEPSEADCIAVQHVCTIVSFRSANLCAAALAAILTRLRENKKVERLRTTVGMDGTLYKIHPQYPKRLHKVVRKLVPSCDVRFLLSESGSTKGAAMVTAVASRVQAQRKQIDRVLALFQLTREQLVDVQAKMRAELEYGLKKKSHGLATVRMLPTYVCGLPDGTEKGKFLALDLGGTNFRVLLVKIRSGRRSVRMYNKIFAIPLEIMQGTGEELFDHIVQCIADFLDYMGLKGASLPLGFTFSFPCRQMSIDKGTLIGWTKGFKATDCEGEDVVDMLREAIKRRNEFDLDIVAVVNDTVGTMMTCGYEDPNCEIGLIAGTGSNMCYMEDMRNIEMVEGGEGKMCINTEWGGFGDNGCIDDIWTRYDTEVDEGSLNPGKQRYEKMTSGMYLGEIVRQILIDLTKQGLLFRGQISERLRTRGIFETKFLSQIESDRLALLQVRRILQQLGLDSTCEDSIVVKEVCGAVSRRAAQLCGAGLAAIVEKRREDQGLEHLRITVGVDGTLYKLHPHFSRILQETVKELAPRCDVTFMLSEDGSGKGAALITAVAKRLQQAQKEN
The experiment is described as follows: SAR analysis of small molecule inhibitors of hexokinase domain containing I (HKDC1). [Related pubchem assays (depositor defined):AID493160, AID493190]. It counts as functional.

For a further experiment, the target named is T4, Hexokinase-1 (Homo sapiens, UniProt P19367).
T4 sequence (P19367 whole entry): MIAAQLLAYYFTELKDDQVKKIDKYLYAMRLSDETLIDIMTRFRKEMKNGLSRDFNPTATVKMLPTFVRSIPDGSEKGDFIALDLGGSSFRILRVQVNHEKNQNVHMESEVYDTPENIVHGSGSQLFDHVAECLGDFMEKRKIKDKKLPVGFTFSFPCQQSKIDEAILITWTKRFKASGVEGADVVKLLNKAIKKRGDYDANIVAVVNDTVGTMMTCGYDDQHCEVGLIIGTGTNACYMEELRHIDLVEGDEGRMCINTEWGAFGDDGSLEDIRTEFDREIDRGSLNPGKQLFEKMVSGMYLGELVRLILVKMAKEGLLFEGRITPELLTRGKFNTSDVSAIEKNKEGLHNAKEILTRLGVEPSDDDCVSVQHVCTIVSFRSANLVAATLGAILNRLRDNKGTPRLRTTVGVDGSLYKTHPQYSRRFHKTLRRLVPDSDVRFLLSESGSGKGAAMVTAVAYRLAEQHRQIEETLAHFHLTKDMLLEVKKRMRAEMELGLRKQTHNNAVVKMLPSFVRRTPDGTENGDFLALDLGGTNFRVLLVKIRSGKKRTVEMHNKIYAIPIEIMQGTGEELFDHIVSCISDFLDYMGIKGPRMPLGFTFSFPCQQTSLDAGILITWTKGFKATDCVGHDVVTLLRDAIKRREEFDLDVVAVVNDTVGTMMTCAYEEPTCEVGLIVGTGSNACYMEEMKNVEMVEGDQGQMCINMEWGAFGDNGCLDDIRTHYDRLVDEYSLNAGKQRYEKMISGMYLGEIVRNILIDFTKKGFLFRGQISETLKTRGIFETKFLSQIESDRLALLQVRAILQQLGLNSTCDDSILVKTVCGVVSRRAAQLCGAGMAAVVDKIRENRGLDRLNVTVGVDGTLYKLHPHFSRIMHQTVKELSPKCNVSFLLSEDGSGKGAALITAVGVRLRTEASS
The experiment is described as follows: SAR analysis of small molecule inhibitors of hexokinase domain containing I (HKDC1) in the hexokinase 1 selectivity assay. [Related pubchem assays (depositor defined):AID493160, AID493190]. It counts as functional.

For experiment [8], the target named is T5, Rac GTPase-activating protein 1 (Homo sapiens, UniProt Q9H0H5).
T5 sequence (Q9H0H5 whole entry): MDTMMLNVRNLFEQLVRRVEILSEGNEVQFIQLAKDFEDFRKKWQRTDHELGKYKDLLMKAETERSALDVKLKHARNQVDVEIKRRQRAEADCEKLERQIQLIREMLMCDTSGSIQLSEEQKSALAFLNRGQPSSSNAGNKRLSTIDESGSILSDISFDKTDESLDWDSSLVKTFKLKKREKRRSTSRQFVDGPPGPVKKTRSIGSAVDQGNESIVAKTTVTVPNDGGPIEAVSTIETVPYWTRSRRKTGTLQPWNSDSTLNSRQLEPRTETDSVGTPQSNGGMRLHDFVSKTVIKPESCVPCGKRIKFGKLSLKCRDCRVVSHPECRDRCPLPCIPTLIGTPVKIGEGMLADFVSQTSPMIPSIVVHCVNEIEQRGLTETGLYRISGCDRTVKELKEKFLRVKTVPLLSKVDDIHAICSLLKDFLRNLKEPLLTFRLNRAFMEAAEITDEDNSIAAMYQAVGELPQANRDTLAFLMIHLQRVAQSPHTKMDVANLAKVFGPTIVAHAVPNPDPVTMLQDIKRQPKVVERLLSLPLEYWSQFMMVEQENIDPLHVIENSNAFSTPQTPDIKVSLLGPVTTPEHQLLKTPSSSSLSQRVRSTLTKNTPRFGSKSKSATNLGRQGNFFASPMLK
The experiment is described as follows: blockers of MgcRacGAP-driven Rac1 GTP hydrolysis – biochemical, ADP Hunter fluorescence, primary and confirmatory, confirmation (AID 624330). Type of experiment: functional.

The next experiment has as its system HEK293. In words: cells. It counts as functional, cell-based. To be noted: Homo sapiens.
Experiment [9] concerns the target T6, Nuclear receptor subfamily 0 group B member 1 (Homo sapiens, UniProt P51843).
T6 sequence (P51843 whole entry): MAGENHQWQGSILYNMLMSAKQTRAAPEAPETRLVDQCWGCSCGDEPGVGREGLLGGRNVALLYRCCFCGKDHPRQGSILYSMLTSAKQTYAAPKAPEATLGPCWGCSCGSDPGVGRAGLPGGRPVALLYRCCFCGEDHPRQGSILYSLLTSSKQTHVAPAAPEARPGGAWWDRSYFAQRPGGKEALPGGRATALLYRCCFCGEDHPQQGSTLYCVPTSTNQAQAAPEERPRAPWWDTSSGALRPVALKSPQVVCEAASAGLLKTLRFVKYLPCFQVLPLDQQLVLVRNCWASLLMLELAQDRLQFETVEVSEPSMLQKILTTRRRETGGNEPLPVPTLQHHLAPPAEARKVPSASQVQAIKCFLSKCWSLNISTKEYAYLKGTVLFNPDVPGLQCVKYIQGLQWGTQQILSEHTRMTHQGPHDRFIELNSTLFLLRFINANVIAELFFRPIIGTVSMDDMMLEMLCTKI
The experiment is described as follows: Luminescence-based cell-based high throughput dose response assay for inhibitors of the orphan nuclear receptor subfamily 0, group B, member 1 (DAX1; NR0B1). [Related pubchem assays (depositor defined):AID504766, AID504790]. It counts as functional.

Experiment [10] in a line: NIH-3T3 fibroblast cytotoxicity, dose response, cytotoxicity control, cell-based, fluorescence, Alamar Blue, secondary assay (AID 2327).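 Further: NIH-3T3 mouse fibroblasts cultured with fluconazole at 8 µg/mL.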 Type of experiment: functional.
Experiment [11] concerns the target ATP-dependent molecular chaperone HSP82 (Candida albicans (strain WO-1) (Yeast), UniProt C4YTQ8). The experiment is described as follows: steroid-induced GRE reporter decrease in yeast – S. cerevisiae, luminescence, Hsp90 inhibitor project, dose response (AID 2400).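 Further: beta-galactosidase luminescence from glucocorticoid response element reporter as proxy for Hsp90 function; inhibitor potency where signal loss means Hsp90 inhibition.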 It counts as functional, cell-based.
Experiment [12] is described as follows: fluconazole-exposed Candida albicans growth modulators – fluorescence, retest, confirmation (AID 2467). Type of experiment: functional, cell-based.
In experiment [13] the target is Serine/threonine-protein phosphatase (Candida dubliniensis (strain CD36 / CBS 7987 / NCPF 3949 / NRRLY-17841) (Yeast), UniProt B9W6M3). The experiment is described as follows: blockers of CaCl2-induced CDRE-lacZ signaling – S. cerevisiae, luminescence, secondary, dose response (AID 2388).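 Further: yeast reporter cells carrying a calcineurin-responsive lacZ construct stimulated with calcium chloride; luminescent beta-galactosidase reporter signal in whole cells rather than isolated phosphatase activity; potency for inhibition where a drop in reporter signal means calcineurin blockade.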 It counts as functional, cell-based.
Sequence of Serine/threonine-protein phosphatase (B9W6M3 whole entry): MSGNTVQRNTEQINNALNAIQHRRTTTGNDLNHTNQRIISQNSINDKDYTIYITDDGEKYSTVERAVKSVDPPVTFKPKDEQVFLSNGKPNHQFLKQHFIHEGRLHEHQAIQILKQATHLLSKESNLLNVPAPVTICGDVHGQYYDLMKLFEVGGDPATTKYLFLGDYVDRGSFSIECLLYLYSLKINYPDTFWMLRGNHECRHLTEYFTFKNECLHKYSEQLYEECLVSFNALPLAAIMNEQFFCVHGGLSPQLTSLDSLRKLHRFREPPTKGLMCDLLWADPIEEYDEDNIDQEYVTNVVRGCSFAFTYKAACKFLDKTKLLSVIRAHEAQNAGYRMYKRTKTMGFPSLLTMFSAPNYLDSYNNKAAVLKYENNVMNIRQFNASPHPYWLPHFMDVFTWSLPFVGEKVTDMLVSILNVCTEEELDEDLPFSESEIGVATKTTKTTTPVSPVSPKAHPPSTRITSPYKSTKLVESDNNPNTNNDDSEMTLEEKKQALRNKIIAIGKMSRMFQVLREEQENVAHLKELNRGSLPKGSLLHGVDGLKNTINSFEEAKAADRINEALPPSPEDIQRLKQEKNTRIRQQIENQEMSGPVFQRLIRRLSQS

The structures appear in SMILES notation. Active and inactive are the calls of the source.

Sequence of Beta Lactamase (Q932Y6 whole entry): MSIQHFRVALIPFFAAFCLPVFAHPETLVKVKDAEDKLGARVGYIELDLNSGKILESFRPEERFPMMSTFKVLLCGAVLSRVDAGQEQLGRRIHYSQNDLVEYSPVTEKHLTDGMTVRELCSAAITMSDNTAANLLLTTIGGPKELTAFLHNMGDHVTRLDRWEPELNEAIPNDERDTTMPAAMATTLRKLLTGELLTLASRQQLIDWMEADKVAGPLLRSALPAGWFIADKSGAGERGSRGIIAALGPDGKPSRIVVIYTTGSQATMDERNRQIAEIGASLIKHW
Sequence of Short transient receptor potential channel 6 (Q61143 whole entry): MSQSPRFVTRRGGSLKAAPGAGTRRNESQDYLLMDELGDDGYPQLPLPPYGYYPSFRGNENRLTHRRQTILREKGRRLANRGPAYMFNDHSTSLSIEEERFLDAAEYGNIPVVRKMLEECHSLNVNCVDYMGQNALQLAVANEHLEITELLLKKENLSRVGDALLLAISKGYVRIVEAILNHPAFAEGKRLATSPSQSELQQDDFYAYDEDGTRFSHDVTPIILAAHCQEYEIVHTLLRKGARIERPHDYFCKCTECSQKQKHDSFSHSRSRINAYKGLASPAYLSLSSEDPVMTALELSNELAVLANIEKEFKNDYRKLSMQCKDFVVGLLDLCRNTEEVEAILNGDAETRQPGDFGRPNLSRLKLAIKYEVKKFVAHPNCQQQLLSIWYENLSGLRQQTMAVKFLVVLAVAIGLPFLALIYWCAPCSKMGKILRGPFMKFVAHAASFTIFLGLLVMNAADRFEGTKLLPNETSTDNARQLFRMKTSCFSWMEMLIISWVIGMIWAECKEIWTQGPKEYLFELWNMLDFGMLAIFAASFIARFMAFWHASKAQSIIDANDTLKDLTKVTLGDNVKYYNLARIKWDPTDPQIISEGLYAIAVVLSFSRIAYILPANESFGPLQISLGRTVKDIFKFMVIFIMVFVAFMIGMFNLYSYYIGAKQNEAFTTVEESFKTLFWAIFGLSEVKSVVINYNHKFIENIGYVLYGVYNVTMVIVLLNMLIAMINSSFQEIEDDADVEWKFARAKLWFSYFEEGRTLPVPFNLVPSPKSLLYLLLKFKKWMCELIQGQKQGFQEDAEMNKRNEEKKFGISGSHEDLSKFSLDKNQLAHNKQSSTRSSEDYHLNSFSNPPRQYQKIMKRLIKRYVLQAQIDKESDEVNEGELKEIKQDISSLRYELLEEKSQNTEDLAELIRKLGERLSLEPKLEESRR

A word on the IC50: it is the concentration at which inhibition is half-maximal. For orientation: CC50 means the concentration giving 50% cytotoxicity. Turning to `CC[C@H](C)/C=C(C)/C=C/C1=CC2=CC(=O)[C@]3(C)OC(=O)[C@@H](C(C)=O)[C@@H]3C2=CO1`, the IC50 on Beta Lactamase was 8.86 µM (active); with CHO, > 49.7 µM (inactive). In addition, in [1], the CC50 was > 40 µM (active).

Regarding `Cc1cc2nc(/C=C/c3nc4cc(C)c(C)cc4[nH]3)[nH]c2cc1C`, the IC50 is 20.9 µM (inactive) at Beta Lactamase; > 50 µM (inactive) in experiment [2]; 3.67 µM (active) in [3]; > 49.7 µM (inactive) in the experiment on CHO; 18.5 µM (active) in [4].

In the case of `Cc1ccc2nc(N3CCCCCC3)cc(C)c2c1`, the IC50 in experiment [5] was 0.9 µM (active); in [6], 12.8 µM (active); in [7], 1.3 µM (active).

Regarding `O=c1c2ccccc2nc(/C=C/c2cccnc2)n1Cc1ccc(F)cc1`, the IC50 on Hexokinase HKDC1 and at Hexokinase-1 was > 80 µM (inactive) in each case.

As to `Cc1cc(C)c(S(=O)(=O)Nc2cc(SCCC(=O)O)c(O)c3ccccc23)cc1C`, the IC50 is 9.9 µM (active) at Hexokinase HKDC1 and > 80 µM (inactive) on Hexokinase-1.

Turning to `Cn1c(N2CCOCC2)c(/C=N/O)c2ccccc21`, the IC50 is 74.5 µM (active) in experiment [8], > 67.5 µM (inactive) with HEK293 and > 67.5 µM (inactive) in experiment [9].

A word on the EC50: it is the concentration at which the effect is half-maximal. Consider `N#Cc1cc(C#N)c(N2CCN(c3cccc(Cl)n3)CC2)nc1N`, for which the EC50 in experiment [10] is > 150 µM (inactive); in [11], 23.7 µM (active); in experiment [12], 1.47 µM (active); in [13] it was > 180 µM (inactive).

Values taken from ChEMBL document CHEMBL1201862, “PubChem BioAssay data set” (2004).
